Measurements published in patent US4690823A, “Ibuprofen-containing soft gelatin capsules and process for preparing same” (Dolorgiet Beteiligungs-GmbH, priority 1984, dated 1987).

Assay: Precipitation of ibuprofen from solution on contact with aqueous medium / artificial gastric juice or on cooling
Format: physicochemical
Settings: addition of small amounts of water, or aqueous medium such as artificial gastric juice
Description: It is an object of the present invention to provide a medicament that can be readily taken that contains an active amount of ibuprofen in a carrier, that is simple to prepare and that will quickly display a high activity. […] When such a solution, upon oral administration, gets into the stomach, then the aqueous content of the stomach causes the ibuprofen to be precipitated so that it will be barred from a quick resorption. […] In addition, these solutions may be incorporated in soft gelatin capsules in a per se known manner. The latter dosage form has an advantage over all other previously known dosage forms for ibuprofen that upon intake the active ingredient is quickly resorbed. To this effect it is not necessary that, subsequent to synthesis, the active ingredient is subjected to expensive galenic processing measures. […] In order to dissolve ibuprofen in the solvents according to the invention, the solvents are heated at 45° C. to 65° C., since only at these temperatures the dissolution will take place sufficiently fast. Upon cooling to room temperature, no reprecipitation occurs. […] It is readily possible that 40 parts by weight are additionally suspended in said solutions at room temperature and thereafter incorporated in soft gelatin capsules. […]

For `CC(C)Cc1ccc(C(C)C(=O)O)cc1` (stereo not shown) [Ibuprofen, 2-(4-isobutylphenyl)propionic acid], which “precipitation on contact with aqueous medium (in words)” value is on record?
Its value is “will immediately precipitate upon the addition of small amounts of water”.
